Molecules are shown by their SMILES.

Common to all, as to test: ABPP chemical proteomics (LC-MS/MS) in HEK293T cells
Assay type in all cases: cell-based

For one test, the target named is T1, ALYREF (Homo sapiens, UniProt Q86V81).
T1 construct: endogenous in cells; host or cells: HEK293T
Conditions: IMP-2586 labelling vs DMSO, 30 nM, 10 min, HEK293T (Table S4, Fig.5c). In a few lines: (§1)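 Read-out is quantitative LC-MS/MS of probe-labelled proteins from HEK293T cells treated with […]. Labelling used ABP 2 or ABP 4 in live cells (1 h, 37 °C), followed by lysate click chemistry and streptavidin-type enrichment.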

For the next test, the target named is T2, RPL23A (Homo sapiens, UniProt P62750).
T2 construct: endogenous in cells; host or cells: HEK293T
The conditions noted are these: IMP-2586 labelling vs DMSO, 30 nM, 10 min, HEK293T (Table S4, Fig.5c). The method, boiled down: as §1

A further test deals with T3, TMEM263 (Homo sapiens, UniProt Q8WUH6).
T3 construct: endogenous in cells; host or cells: HEK293T
Conditions: IMP-2586 labelling vs DMSO, 30 nM, 10 min, HEK293T (Table S4, Fig.5c). The method, boiled down: as §1

The target of the next test is T4, HSDL1 (Homo sapiens, UniProt Q3SXM5).
T4 construct: endogenous in cells; host or cells: HEK293T
T4 sequence (Q3SXM5 whole entry): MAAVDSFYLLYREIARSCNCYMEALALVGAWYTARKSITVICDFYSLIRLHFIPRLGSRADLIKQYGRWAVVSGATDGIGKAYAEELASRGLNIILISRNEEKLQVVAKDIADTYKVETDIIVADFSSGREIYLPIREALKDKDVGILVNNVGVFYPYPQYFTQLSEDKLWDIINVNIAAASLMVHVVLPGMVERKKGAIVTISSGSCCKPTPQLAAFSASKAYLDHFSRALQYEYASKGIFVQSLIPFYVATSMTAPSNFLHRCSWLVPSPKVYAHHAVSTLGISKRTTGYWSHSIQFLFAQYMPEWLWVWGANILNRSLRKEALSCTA
Conditions: IMP-2586 labelling vs DMSO, 30 nM, 10 min, HEK293T (Table S4, Fig.5c). In a few lines:
as §1

Another test concerns the target T5, TMEM109 (Homo sapiens, UniProt Q9BVC6).
T5 construct: endogenous in cells; host or cells: HEK293T
The conditions noted are these: IMP-2586 labelling vs DMSO, 30 nM, 10 min, HEK293T (Table S4, Fig.5c). The method, boiled down:
as §1

A further test addresses T6, RER1 (Homo sapiens, UniProt O15258).
T6 construct: endogenous in cells; host or cells: HEK293T
The conditions noted are these: IMP-2586 labelling vs DMSO, 30 nM, 10 min, HEK293T (Table S4, Fig.5c). In a few lines:
as §1

The target in the next test is T7, AURKAIP1 (Homo sapiens, UniProt Q9NWT8).
T7 construct: endogenous in cells; host or cells: HEK293T
Conditions: IMP-2586 labelling vs DMSO, 30 nM, 10 min, HEK293T (Table S4, Fig.5c). The method, boiled down:
as §1

A further test addresses T8, RPS8 (Homo sapiens, UniProt P62241).
T8 construct: endogenous in cells; host or cells: HEK293T
The conditions noted are these: IMP-2587 labelling vs DMSO, 30 nM, 10 min, HEK293T (Table S2, Fig.5a). In a few lines:
as §1

The next test has as its target T9, HMGCS1 (Homo sapiens, UniProt Q01581).
T9 construct: endogenous in cells; host or cells: HEK293T
The conditions noted are these: IMP-2587 labelling vs DMSO, 30 nM, 10 min, HEK293T (Table S2, Fig.5a). The method, boiled down:
as §1

The next test addresses T10, RPL10 (Homo sapiens, UniProt P27635).
T10 construct: endogenous in cells; host or cells: HEK293T
The conditions noted are these: compound 1 out-competition with IMP-2587 labelling, HEK293T (Table S3, Fig.5b). In a few lines:
as §1

The next test deals with T11, ACTG1 (Homo sapiens, UniProt P63261).
T11 construct: endogenous in cells; host or cells: HEK293T
Conditions: compound 1 out-competition with IMP-2587 labelling, HEK293T (Table S3, Fig.5b). The method, boiled down: as §1

The target in another test is T12, IMPDH2 (Homo sapiens, UniProt P12268).
T12 construct: endogenous in cells; host or cells: HEK293T
The conditions noted are these: compound 1 out-competition with IMP-2587 labelling, HEK293T (Table S3, Fig.5b). In a few lines:
as §1

The target in another test is T13, DCD (Homo sapiens, UniProt P81605).
T13 construct: endogenous in cells; host or cells: HEK293T
T13 sequence (P81605 20-110): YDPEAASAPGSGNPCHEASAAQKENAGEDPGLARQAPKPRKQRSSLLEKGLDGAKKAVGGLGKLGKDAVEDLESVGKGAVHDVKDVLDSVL
The conditions noted are these: compound 1 out-competition with IMP-2587 labelling, HEK293T (Table S3, Fig.5b). The method, boiled down:
as §1

For a further test, the target named is T14, NUB1 (Homo sapiens, UniProt Q9Y5A7).
T14 construct: endogenous in cells; host or cells: HEK293T
T14 sequence (Q9Y5A7 whole entry): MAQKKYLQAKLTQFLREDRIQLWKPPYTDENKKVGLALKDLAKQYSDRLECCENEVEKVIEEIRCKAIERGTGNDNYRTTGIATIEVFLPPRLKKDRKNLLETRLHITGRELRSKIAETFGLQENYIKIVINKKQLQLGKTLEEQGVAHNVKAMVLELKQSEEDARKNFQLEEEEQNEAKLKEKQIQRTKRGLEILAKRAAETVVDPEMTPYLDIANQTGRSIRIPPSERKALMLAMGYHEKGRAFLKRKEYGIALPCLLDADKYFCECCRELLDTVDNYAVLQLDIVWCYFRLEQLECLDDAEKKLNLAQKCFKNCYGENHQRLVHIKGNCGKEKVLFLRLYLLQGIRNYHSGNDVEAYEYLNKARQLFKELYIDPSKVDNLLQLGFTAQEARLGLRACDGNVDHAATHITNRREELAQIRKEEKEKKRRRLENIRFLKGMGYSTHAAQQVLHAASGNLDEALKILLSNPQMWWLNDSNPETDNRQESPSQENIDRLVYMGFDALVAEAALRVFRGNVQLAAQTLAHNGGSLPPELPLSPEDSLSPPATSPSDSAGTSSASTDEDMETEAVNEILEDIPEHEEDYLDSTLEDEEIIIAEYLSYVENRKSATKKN
The conditions noted are these: compound 3 out-competition with IMP-2586 labelling, HEK293T (Table S5, Fig.5d). In a few lines:
as §1

The next test concerns the target T15, CLPTM1 (Homo sapiens, UniProt O96005).
T15 construct: endogenous in cells; host or cells: HEK293T
Conditions: compound 3 out-competition with IMP-2586 labelling, HEK293T (Table S5, Fig.5d). In a few lines:
as §1

T5 sequence (Q9BVC6 34-243): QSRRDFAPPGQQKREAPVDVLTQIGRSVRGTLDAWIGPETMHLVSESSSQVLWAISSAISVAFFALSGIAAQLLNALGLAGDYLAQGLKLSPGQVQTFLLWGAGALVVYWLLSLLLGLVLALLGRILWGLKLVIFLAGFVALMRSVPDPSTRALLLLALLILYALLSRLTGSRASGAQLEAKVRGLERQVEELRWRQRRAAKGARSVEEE
T9 sequence (Q01581 whole entry): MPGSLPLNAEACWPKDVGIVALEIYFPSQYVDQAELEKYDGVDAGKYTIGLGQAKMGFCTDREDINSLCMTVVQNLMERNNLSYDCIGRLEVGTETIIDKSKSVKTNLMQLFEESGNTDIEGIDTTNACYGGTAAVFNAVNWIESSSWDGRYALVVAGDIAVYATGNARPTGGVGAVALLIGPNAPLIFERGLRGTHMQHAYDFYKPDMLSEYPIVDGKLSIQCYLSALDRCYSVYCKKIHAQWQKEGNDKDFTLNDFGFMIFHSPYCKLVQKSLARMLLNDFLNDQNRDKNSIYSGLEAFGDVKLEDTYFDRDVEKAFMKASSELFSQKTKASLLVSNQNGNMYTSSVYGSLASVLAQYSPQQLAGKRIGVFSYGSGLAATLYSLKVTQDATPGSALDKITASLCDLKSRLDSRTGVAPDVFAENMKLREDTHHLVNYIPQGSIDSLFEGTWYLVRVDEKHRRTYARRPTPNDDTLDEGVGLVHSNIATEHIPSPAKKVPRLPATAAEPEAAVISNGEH
T15 sequence (O96005 whole entry): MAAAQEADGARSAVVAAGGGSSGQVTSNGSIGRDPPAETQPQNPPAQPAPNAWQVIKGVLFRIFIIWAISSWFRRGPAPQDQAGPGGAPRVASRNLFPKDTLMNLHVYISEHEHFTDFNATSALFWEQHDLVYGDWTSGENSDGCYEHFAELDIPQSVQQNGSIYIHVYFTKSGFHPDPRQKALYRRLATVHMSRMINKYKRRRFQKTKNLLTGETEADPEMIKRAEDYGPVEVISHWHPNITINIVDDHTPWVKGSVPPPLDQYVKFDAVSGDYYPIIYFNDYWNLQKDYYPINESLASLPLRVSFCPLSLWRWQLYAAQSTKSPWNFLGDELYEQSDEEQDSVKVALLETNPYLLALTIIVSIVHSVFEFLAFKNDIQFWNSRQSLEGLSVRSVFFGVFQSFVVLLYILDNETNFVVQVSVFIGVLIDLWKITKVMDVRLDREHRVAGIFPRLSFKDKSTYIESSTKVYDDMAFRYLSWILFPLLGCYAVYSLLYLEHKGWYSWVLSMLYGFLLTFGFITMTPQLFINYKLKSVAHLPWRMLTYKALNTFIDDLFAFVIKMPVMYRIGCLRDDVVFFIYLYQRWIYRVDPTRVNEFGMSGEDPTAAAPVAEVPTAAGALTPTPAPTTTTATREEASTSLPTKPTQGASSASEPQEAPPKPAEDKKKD
T6 sequence (O15258 whole entry): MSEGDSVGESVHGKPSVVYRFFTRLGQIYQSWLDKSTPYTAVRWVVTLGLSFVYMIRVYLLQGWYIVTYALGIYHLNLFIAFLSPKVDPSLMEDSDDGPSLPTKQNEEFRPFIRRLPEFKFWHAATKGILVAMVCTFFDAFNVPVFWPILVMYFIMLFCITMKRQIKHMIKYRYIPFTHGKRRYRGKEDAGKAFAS

For the compound `N#CN1CC[C@@H](NC(=O)c2cc(-c3ccccc3Oc3ccc(N=[N+]=[N-])cc3)n[nH]2)C1` [IMP-2586], the “Difference (log2 fold change of enrichment)” value is -0.42 at ALYREF; -0.57 at RPL23A; -0.44 at TMEM263; 1.22 on HSDL1; -1.56 at TMEM109; -1.34 at RER1. The “Difference (log2 fold change of enrichment)” value at AURKAIP1 is recorded as 0.81.
Take `C#Cc1cccc(-c2cc(NC(=O)CC3CCN(C#N)C3)on2)c1` (stereo not drawn) [IMP-2587]: the “Difference (log2 fold change of enrichment)” value was -0.44 at RPS8 and 0.75 on HMGCS1.
With `N#CN1CC[C@H](CC(=O)Nc2cc(-c3cccc(Cl)c3)no2)C1` [compound 1, reference compound], the “Difference (log2 fold change of enrichment)” value on RPL10 is -0.52; at ACTG1, -0.57; at IMPDH2 it was -0.70; on DCD, -0.34.
On to `N#CN1CC[C@@H](NC(=O)c2cc(-c3ccccc3Oc3ccccc3)n[nH]2)C1` [compound 3, reference compound], for which the figures for the “Difference (log2 fold change of enrichment)” value on NUB1 and on CLPTM1 were -0.38 and -1.18, respectively.

For the origin of these results see paper PMC11078216, “Discovery of potent and selective activity-based probes (ABPs) for the deubiquitinating enzyme USP30” (RSC Chemical Biology, 2024).
